Laboratory results published in PubChem BioAssay (NCI).
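Test compounds were applied to cells in 96-well plates for 48 hours at 5 doses. Abbreviation: GI50, concentration required for 50% inhibition of growth. TGI is the concentration that stops growth completely.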

Assays:
Test in all cases: growth of human tumour cells (NCI), 48 h
MALME-3M melanoma = system: MALME-3M melanoma
RPMI-8226 leukemia = system: RPMI-8226 leukemia
UACC-62 melanoma = system: UACC-62 melanoma
TK-10 renal = system: TK-10 renal
MCF7 breast = system: MCF7 breast
SNB-75 CNS = system: SNB-75 CNS
M14 melanoma = system: M14 melanoma
A498 renal = system: A498 renal
BT-549 breast = system: BT-549 breast
CCRF-CEM leukemia = system: CCRF-CEM leukemia
SW-620 colon = system: SW-620 colon
NCI-H226 lung = system: NCI-H226 lung
NCI/ADR-RES ovarian = system: NCI/ADR-RES ovarian
SF-268 CNS = system: SF-268 CNS
IGROV1 ovarian = system: IGROV1 ovarian
MOLT-4 leukemia = system: MOLT-4 leukemia
COLO 205 colon = system: COLO 205 colon
HL-60(TB) leukemia = system: HL-60(TB) leukemia
U251 CNS = system: U251 CNS
NCI-H522 lung = system: NCI-H522 lung
786-0 renal = system: 786-0 renal
SF-295 CNS = system: SF-295 CNS
SK-MEL-5 melanoma = system: SK-MEL-5 melanoma
SK-MEL-2 melanoma = system: SK-MEL-2 melanoma
PC-3 prostate = system: PC-3 prostate
SR leukemia = system: SR leukemia
OVCAR-3 ovarian = system: OVCAR-3 ovarian
HOP-92 NSCLC = system: HOP-92 NSCLC
OVCAR-4 ovarian = system: OVCAR-4 ovarian
OVCAR-8 ovarian = system: OVCAR-8 ovarian
NCI-H460 lung = system: NCI-H460 lung
K-562 leukemia = system: K-562 leukemia
UACC-257 melanoma = system: UACC-257 melanoma
UO-31 renal = system: UO-31 renal
HS 578T breast = system: HS 578T breast
SK-OV-3 ovarian = system: SK-OV-3 ovarian
DU-145 prostate = system: DU-145 prostate
NCI-H23 lung = system: NCI-H23 lung
RXF 393 renal = system: RXF 393 renal
CAKI-1 renal = system: CAKI-1 renal
HCC-2998 colon = system: HCC-2998 colon
SN12C renal = system: SN12C renal
ACHN renal = system: ACHN renal
T-47D breast = system: T-47D breast
HCT-15 colon = system: HCT-15 colon
MDA-MB-231 breast = system: MDA-MB-231 breast
LOX IMVI melanoma = system: LOX IMVI melanoma
A549 NSCLC = system: A549 NSCLC
HCT-116 colon = system: HCT-116 colon
HT29 colon = system: HT29 colon
SF-539 CNS = system: SF-539 CNS
KM12 colon = system: KM12 colon
SNB-19 CNS = system: SNB-19 CNS
OVCAR-5 ovarian = system: OVCAR-5 ovarian
MDA-MB-435 = system: MDA-MB-435
EKVX NSCLC = system: EKVX NSCLC
HOP-62 NSCLC = system: HOP-62 NSCLC
SK-MEL-28 melanoma = system: SK-MEL-28 melanoma

In the case of `Cn1cc(/C=C2\C(=O)Nc3cccnc32)c2ccccc21`, the GI50 (MALME-3M melanoma) is reported as 24.5 µM, the TGI (MALME-3M melanoma) is reported as greater than 25 µM and the GI50 (RPMI-8226 leukemia) is reported as greater than 25 µM. For the same molecule, the TGI (RPMI-8226 leukemia) was greater than 25 µM, the GI50 (UACC-62 melanoma) was 8.82 µM and the TGI (UACC-62 melanoma) was greater than 25 µM. The GI50 (TK-10 renal) was 12.3 µM, the TGI (TK-10 renal) was greater than 25 µM and the GI50 (MCF7 breast) was 8.04 µM. For the same molecule, the TGI (MCF7 breast) was greater than 25 µM, the GI50 (SNB-75 CNS) was greater than 19.6 µM and the TGI (SNB-75 CNS) was greater than 25 µM. The GI50 (M14 melanoma) was 9.32 µM, the TGI (M14 melanoma) was greater than 25 µM and the GI50 (A498 renal) was 4.73 µM. The TGI (A498 renal) was greater than 25 µM, the GI50 (BT-549 breast) was greater than 25 µM and the TGI (BT-549 breast) was greater than 25 µM. The GI50 (CCRF-CEM leukemia) was 16 µM, the TGI (CCRF-CEM leukemia) was greater than 25 µM and the GI50 (SW-620 colon) was 12.6 µM. It also gave a TGI (SW-620 colon) greater than 25 µM, a GI50 (NCI-H226 lung) of 10.8 µM and a TGI (NCI-H226 lung) greater than 25 µM. For the same molecule, the GI50 (NCI/ADR-RES ovarian) was 20.4 µM, the TGI (NCI/ADR-RES ovarian) was greater than 25 µM and the GI50 (SF-268 CNS) was greater than 21.7 µM. It also gave a TGI (SF-268 CNS) greater than 25 µM, a GI50 (IGROV1 ovarian) of 6.82 µM and a TGI (IGROV1 ovarian) greater than 25 µM. The GI50 (MOLT-4 leukemia) was 11.5 µM, the TGI (MOLT-4 leukemia) was greater than 25 µM and the GI50 (COLO 205 colon) was 20.6 µM. The TGI (COLO 205 colon) was greater than 25 µM, the GI50 (HL-60(TB) leukemia) was greater than 22.5 µM and the TGI (HL-60(TB) leukemia) was greater than 25 µM. It also gave a GI50 (U251 CNS) greater than 25 µM, a TGI (U251 CNS) greater than 25 µM and a GI50 (NCI-H522 lung) of 14.7 µM. For the same molecule, the TGI (NCI-H522 lung) was greater than 25 µM, the GI50 (786-0 renal) was greater than 25 µM and the TGI (786-0 renal) was greater than 25 µM. For the same molecule, the GI50 (SF-295 CNS) was greater than 25 µM, the TGI (SF-295 CNS) was greater than 25 µM and the GI50 (SK-MEL-5 melanoma) was 9.2 µM. The TGI (SK-MEL-5 melanoma) was greater than 25 µM, the GI50 (SK-MEL-2 melanoma) was 11.6 µM and the TGI (SK-MEL-2 melanoma) was greater than 25 µM. For the same molecule, the GI50 (PC-3 prostate) was 22.9 µM, the TGI (PC-3 prostate) was greater than 25 µM and the GI50 (SR leukemia) was greater than 25 µM. For the same molecule, the TGI (SR leukemia) was greater than 25 µM, the GI50 (OVCAR-3 ovarian) was greater than 22.5 µM and the TGI (OVCAR-3 ovarian) was greater than 25 µM. It also gave a GI50 (HOP-92 NSCLC) of 2.51 µM, a TGI (HOP-92 NSCLC) of 24.8 µM and a GI50 (OVCAR-4 ovarian) of 24.8 µM. The TGI (OVCAR-4 ovarian) was greater than 25 µM, the GI50 (OVCAR-8 ovarian) was 16.9 µM and the TGI (OVCAR-8 ovarian) was greater than 25 µM. It also gave a GI50 (NCI-H460 lung) of 16.4 µM, a TGI (NCI-H460 lung) greater than 25 µM and a GI50 (K-562 leukemia) greater than 18.4 µM. The TGI (K-562 leukemia) was greater than 25 µM, the GI50 (UACC-257 melanoma) was 13.9 µM and the TGI (UACC-257 melanoma) was greater than 25 µM. It also gave a GI50 (UO-31 renal) of 4.86 µM, a TGI (UO-31 renal) greater than 25 µM and a GI50 (HS 578T breast) of 8.58 µM. The TGI (HS 578T breast) was greater than 25 µM, the GI50 (SK-OV-3 ovarian) was 17 µM and the TGI (SK-OV-3 ovarian) was greater than 25 µM. The GI50 (DU-145 prostate) was 18 µM, the TGI (DU-145 prostate) was greater than 25 µM and the GI50 (NCI-H23 lung) was 10.9 µM. It also gave a TGI (NCI-H23 lung) greater than 25 µM, a GI50 (RXF 393 renal) of 10.8 µM and a TGI (RXF 393 renal) greater than 25 µM. It also gave a GI50 (CAKI-1 renal) of 10.2 µM, a TGI (CAKI-1 renal) greater than 25 µM and a GI50 (HCC-2998 colon) greater than 25 µM. The TGI (HCC-2998 colon) was greater than 25 µM, the GI50 (SN12C renal) was 9.88 µM and the TGI (SN12C renal) was greater than 25 µM. For the same molecule, the GI50 (ACHN renal) was 11.5 µM, the TGI (ACHN renal) was greater than 25 µM and the GI50 (T-47D breast) was greater than 17.1 µM. It also gave a TGI (T-47D breast) greater than 25 µM, a GI50 (HCT-15 colon) greater than 17.3 µM and a TGI (HCT-15 colon) greater than 25 µM. For the same molecule, the GI50 (MDA-MB-231 breast) was 11.1 µM, the TGI (MDA-MB-231 breast) was greater than 25 µM and the GI50 (LOX IMVI melanoma) was 7.77 µM. The TGI (LOX IMVI melanoma) was greater than 25 µM, the GI50 (A549 NSCLC) was 11.8 µM and the TGI (A549 NSCLC) was greater than 25 µM. It also gave a GI50 (HCT-116 colon) of 14.7 µM, a TGI (HCT-116 colon) greater than 25 µM and a GI50 (HT29 colon) of 13.1 µM. It also gave a TGI (HT29 colon) greater than 25 µM, a GI50 (SF-539 CNS) greater than 25 µM and a TGI (SF-539 CNS) greater than 25 µM. It also gave a GI50 (KM12 colon) of 0.885 µM, a TGI (KM12 colon) greater than 25 µM and a GI50 (SNB-19 CNS) greater than 25 µM. The TGI (SNB-19 CNS) was greater than 25 µM, the GI50 (OVCAR-5 ovarian) was greater than 25 µM and the TGI (OVCAR-5 ovarian) was greater than 25 µM. For the same molecule, the GI50 (MDA-MB-435) was 18 µM, the TGI (MDA-MB-435) was greater than 25 µM and the GI50 (EKVX NSCLC) was 11.1 µM. It also gave a TGI (EKVX NSCLC) greater than 25 µM, a GI50 (HOP-62 NSCLC) greater than 25 µM and a TGI (HOP-62 NSCLC) greater than 25 µM. The GI50 (SK-MEL-28 melanoma) was greater than 25 µM and the TGI (SK-MEL-28 melanoma) was greater than 25 µM.
